Holding throughout (type): functional
For experiment [1], the system named is Blumeria graminis f. sp. tritici. The experiment is described as follows: Antifungal activity against Blumeria graminis f. sp. tritici infected seven-day-old wheat seedlings assessed as disease control at 400 mg/l after 7 days relative to control.
Experiment [2] deals with Pyricularia oryzae. The experiment is described as follows: Antifungal activity against Magnaporthe oryzae infected 12 day old rice plant assessed as disease control at 400 mg/l after 6 days relative to control.
Experiment [3] concerns Tetranychus cinnabarinus. The experiment is described as follows: Acaricidal activity against Tetranychus cinnabarinus (carmine spider mite) in kidney bean plants assessed as mortality at 10 mg/l after 48 hr relative to control.
The test system of experiment [4] is Tetranychus cinnabarinus. The experiment is described as follows: Acaricidal activity against Tetranychus cinnabarinus (carmine spider mite) in kidney bean plants assessed as mortality at 1.25 mg/l after 48 hr relative to control.
Experiment [5] deals with Botrytis cinerea. As to the kind of experiment: Antifungal activity against Botryotinia fuckeliana infected cucumber leaves assessed as disease control at 400 mg/l after 4 days relative to control.
For experiment [6], the system named is Tetranychus cinnabarinus. The experiment is described as follows: Acaricidal activity against Tetranychus cinnabarinus (carmine spider mite) in kidney bean plants assessed as mortality at 38 mg/l after 48 hr relative to control.
The test system of experiment [7] is Tetranychus cinnabarinus. As to the kind of experiment: Acaricidal activity against Tetranychus cinnabarinus (carmine spider mite) in kidney bean plants assessed as mortality at 2.5 mg/l after 48 hr relative to control.
Experiment [8] deals with Pseudoperonospora cubensis. As to the kind of experiment: Antifungal activity against Pseudoperonospora cubensis infected cucumber leaves assessed as disease control at 25 mg/l after 5 days relative to control.
The test system of experiment [9] is Blumeria graminis f. sp. tritici. As to the kind of experiment: Antifungal activity against Blumeria graminis f. sp. tritici infected seven-day-old wheat seedlings assessed as disease control at 1.56 mg/l after 7 days relative to control.
Experiment [10] deals with Tetranychus cinnabarinus. The experiment is described as follows: Acaricidal activity against Tetranychus cinnabarinus (carmine spider mite) in kidney bean plants assessed as mortality at 600 mg/l after 48 hr relative to control.
For experiment [11], the system named is Tetranychus cinnabarinus. The experiment is described as follows: Acaricidal activity against Tetranychus cinnabarinus (carmine spider mite) in kidney bean plants assessed as mortality at 150 mg/l after 48 hr relative to control.
The test system of experiment [12] is Tetranychus cinnabarinus. The experiment is described as follows: Acaricidal activity against Tetranychus cinnabarinus (carmine spider mite) in kidney bean plants assessed as mortality at 5 mg/l after 48 hr relative to control.
The test system of experiment [13] is Tetranychus cinnabarinus. As to the kind of experiment: Acaricidal activity against Tetranychus cinnabarinus (carmine spider mite) in kidney bean plants assessed as mortality at 20 mg/l after 48 hr relative to control.
Experiment [14] concerns Pseudoperonospora cubensis. The experiment is described as follows: Antifungal activity against Pseudoperonospora cubensis infected cucumber leaves assessed as disease control at 3.12 mg/l after 5 days relative to control.
The subject of experiment [15] is Blumeria graminis f. sp. tritici. The experiment is described as follows: Antifungal activity against Blumeria graminis f. sp. tritici infected seven-day-old wheat seedlings assessed as disease control at 12.5 mg/l after 7 days relative to control.
Experiment [16] concerns Pseudoperonospora cubensis. As to the kind of experiment: Antifungal activity against Pseudoperonospora cubensis infected cucumber leaves assessed as disease control at 400 mg/l after 5 days relative to control.
For experiment [17], the system named is Tetranychus cinnabarinus. As to the kind of experiment: Acaricidal activity against Tetranychus cinnabarinus (carmine spider mite) in kidney bean plants assessed as mortality at 40 mg/l after 48 hr relative to control.
For experiment [18], the system named is Pseudoperonospora cubensis. The experiment is described as follows: Antifungal activity against Pseudoperonospora cubensis infected cucumber leaves assessed as disease control at 6.25 mg/l after 5 days relative to control.

Structures are written as SMILES.

For the compound `CO/C=C(/C(=O)OC)c1ccccc1COc1c(C)c(-c2ccc(C)cc2C)nn1C`, the Activity in experiment [1] worked out at 100%; in experiment [2] it was 100%; in [3], 89%; in [4], 28%; in experiment [5], 50%; in [6] it was 100%. Also, the Activity in [7] was determined as 36%; in [8], 100%; in [9], 90%; in experiment [10] it was 100%; in experiment [11], 100%; in experiment [12] it was 85%. Besides, the Activity was 100% in experiment [13]; 80% in experiment [14]; 100% in [15]; 100% in experiment [16]; 100% in experiment [17]; 98% in experiment [18].
With `CC(C)(C)c1ccc(CSc2cnn(C(C)(C)C)c(=O)c2Cl)cc1` [PYRIDABEN], the Activity in [3] is listed as 48%; in experiment [4], 0%; in [7], 12%; in experiment [12] it was 22%; in experiment [13], 57%; in experiment [17], 77%.

The values are drawn from ChEMBL document CHEMBL3045550, “Design, synthesis and biological activities of new strobilurin derivatives containing substituted pyrazoles” (2010).
